Active and inactive are the calls of the source. No cut-off for these calls is given here. Square brackets hold non-standard residues; d marks the D form. Peptide text beside a SMILES is read from it. Pmp = N[C@@H](Cc1ccc(CP(=O)(O)O)cc1)C(=O)O
Legend:
[1] = target: T1, Receptor-type tyrosine-protein phosphatase C (Homo sapiens, UniProt P08575); assay: Inhibition of CD45
T1 sequence (P08575 whole entry): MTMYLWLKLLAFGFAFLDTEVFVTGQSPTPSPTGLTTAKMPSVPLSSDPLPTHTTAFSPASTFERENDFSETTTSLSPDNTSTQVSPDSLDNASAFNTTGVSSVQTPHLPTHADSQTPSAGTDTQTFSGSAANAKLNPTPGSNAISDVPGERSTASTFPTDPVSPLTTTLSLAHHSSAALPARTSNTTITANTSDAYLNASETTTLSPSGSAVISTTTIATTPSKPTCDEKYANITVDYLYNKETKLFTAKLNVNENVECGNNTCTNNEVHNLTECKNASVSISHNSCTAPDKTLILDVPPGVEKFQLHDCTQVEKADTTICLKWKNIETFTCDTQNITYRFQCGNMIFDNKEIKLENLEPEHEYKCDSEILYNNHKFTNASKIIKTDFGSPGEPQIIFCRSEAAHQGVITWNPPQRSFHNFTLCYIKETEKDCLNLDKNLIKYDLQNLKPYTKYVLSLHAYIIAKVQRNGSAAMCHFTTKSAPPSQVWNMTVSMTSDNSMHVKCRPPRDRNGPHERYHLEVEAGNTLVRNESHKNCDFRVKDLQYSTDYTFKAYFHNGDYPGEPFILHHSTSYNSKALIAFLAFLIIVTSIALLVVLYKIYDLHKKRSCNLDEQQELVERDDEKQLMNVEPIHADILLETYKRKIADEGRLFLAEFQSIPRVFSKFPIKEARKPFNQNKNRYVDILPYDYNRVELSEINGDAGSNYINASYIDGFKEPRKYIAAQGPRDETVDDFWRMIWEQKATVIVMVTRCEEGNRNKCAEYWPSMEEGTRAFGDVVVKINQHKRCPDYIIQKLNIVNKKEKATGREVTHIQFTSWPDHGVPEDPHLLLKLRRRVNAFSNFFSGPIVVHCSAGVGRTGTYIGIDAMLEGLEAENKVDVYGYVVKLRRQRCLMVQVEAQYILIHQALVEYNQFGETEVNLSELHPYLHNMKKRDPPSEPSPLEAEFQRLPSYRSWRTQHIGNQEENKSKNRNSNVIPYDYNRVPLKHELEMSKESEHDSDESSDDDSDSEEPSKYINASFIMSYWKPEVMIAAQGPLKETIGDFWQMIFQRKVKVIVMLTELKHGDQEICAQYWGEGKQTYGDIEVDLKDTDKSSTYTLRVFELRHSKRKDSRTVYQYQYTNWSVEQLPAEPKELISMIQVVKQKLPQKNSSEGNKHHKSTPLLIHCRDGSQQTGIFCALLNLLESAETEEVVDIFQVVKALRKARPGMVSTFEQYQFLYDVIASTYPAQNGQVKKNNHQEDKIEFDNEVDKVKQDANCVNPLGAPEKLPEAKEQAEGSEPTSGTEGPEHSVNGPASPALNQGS

[2] = target: T2, Tyrosine-protein phosphatase non-receptor type 2 (Homo sapiens) (UniProt P17706); assay: Inhibition of TCPTP upto 120 uM
T2 sequence (whole entry): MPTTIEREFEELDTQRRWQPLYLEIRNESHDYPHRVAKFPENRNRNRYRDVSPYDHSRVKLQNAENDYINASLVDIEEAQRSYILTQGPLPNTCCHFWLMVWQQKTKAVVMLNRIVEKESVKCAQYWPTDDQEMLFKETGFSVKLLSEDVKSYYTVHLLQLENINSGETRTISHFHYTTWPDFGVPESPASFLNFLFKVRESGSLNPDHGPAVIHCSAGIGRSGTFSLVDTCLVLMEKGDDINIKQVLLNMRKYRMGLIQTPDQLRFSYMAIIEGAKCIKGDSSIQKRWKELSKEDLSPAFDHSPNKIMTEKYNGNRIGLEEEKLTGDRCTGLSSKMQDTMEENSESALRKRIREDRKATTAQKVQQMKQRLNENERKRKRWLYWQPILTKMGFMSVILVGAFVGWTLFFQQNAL

With `CC(=O)N[C@H](C(=O)N[C@@H](CCC(=O)O)C(=O)NCC(=O)N[C@@H](CCC(N)=O)C(=O)N[C@@H](Cc1ccc(CP(=O)(O)O)cc1)C(=O)N[C@@H](CCC(N)=O)C(=O)N1CCC[C@H]1C(=O)N[C@@H](CCC(N)=O)C(=O)N1CCC[C@H]1C(N)=O)[C@@H](C)O` (Ac-TEGQ[Pmp]QPQP-NH2) the IC50 [1] was 100 µM and the Activity [2] was “inactive”.

From ChEMBL document CHEMBL1141489, “A highly efficient route to enantiomerically pure l-N-Bz-Pmp(t-Bu)2-OH and incorporation into a peptide-based protein tyrosine phosphatase inhibitor” (Bioorg Med Chem Lett, 2008)
